Drawing on US5817670A, “Naphthyridine derivatives and pharmaceutical compositions thereof” (Yamanouchi Pharmaceutical Co., Ltd., priority 1994, dated 1998), this text covers IC50 for 14 compounds.

What is called IC50 is the midpoint of a concentration-inhibition curve. Lower therefore signals higher potency.

Counter-ions that a name gives are not always drawn.

The experiment addresses T1, type V phosphodiesterase (Homo sapiens, UniProt O76074).
T1 construct: from tissue; host or cells: human peripheral blood granulocyte fraction, soluble, Q Sepharose
Description: Phosphodiesterase inhibition activity (in vitro), Type V. Type of experiment: biochemical, human (peripheral blood of a healthy person). Particulars: 1 μM cGMP. The source says: (A) In order to evaluate selectivity of the compounds of the present invention for type IV phosphodiesterase, types I, II, III and V phosphodiesterase isozymes were purified in the following manner.
2) Solutions containing various phosphodiesterase isozymes were obtained from the thus obtained soluble fraction in the following manner. The thus, obtained soluble fraction was applied to a column of 1.6×10.0 cm packed with Q Sepharose which had been equilibrated with buffer A. Next, said column was washed with 300 ml of buffer A to remove non-absorbed protein. Phosphodiesterase was eluted with 200 ml of buffer A having 0.05 to 1.25M linear gradient of sodium acetate to collect about 40 fractions each containing 5.0 ml eluate. Each fraction was checked for cAMP- and cGMP-metabolizing phosphodiesterase activities. Of these fractions, a fraction having only cAMP-metabolizing activity and showing disappearance of the metabolizing activity by 0.1 μM cilostamide (a type III phosphodiesterase selective inhibitor) was used as the type III phosphodiesterase. […] These fractions were separately collected to be used as phosphodiesterase (types I, II and III) stock solutions for the examination of selectivity. p1 3) A solution containing type V phosphodiesterase was prepared from peripheral blood of a healthy person in the following manner. A 200 ml portion of physiological saline supplemented with dextran (3%) was added to 500 ml of heparinized peripheral blood and incubated at 37° C. for 40 minutes to effect precipitation of erythrocytes. The supernatant fluid after precipitation of erythrocytes was recovered and centrifuged once, and the resulting precipitate was suspended in buffer B (140 mM NaCl, 5 mM KCl, 5 mm glucose and 10 mM HEPES, pH 7.4), overlaid on a solution for density gradient centrifugation use (Ficoll solution) and then centrifuged at room temperature for 40 minutes at 450×g, thereby separating monocyte fraction and granulocyte fraction. The granulocyte fraction was washed once with buffer C (140 mM NaCl, 5 mM KCl, 1 mM CaCl2, 1 mM MgCl2, 5 mM glucose and 10 mM HEPES, pH 7.4) and suspended in buffer D (20 mM Bis-Tris, 5 mM dithioerythritol, 2 mM EGTA and 50 mM sodium acetate, pH 6.5) containing a protease inhibitor (40 μM leupeptin, 5 μM pepstatin A, 20 μM aprotinin, 50 μM phenyl-methyl-sulfonyl-fluoride or 2 mM benzamidine) and then the cells were disrupted using polytron and sonicator and subjected to ultracentrifugation (4° C., 100,000×g, 60 minutes) to give a soluble fraction.
4) The thus obtained soluble fraction was applied to a column of 1.6×10 cm packed with Q Sepharose which had been equilibrated with buffer D. Next, the column was washed with 120 ml of buffer D to remove non-absorbed protein. Phosphodiesterase was eluted with 300 ml of buffer D having 0.05 to 1.25M linear gradient of sodium acetate to collect fractions each containing 5.0 ml eluate. Each fraction was checked for cAMP- and cGMP-metabolizing phosphodiesterase activities. Fractions having only cGMP metabolizing activity were collected to be used as the type V phosphodiesterase stock solution.
(B) Inhibitory activities were measured using the thus obtained stock solutions of various phosphodiesterase isozymes.
1) A predetermined amount of each compound to be tested was subjected to 10 minutes of reaction at 30° C. in a reaction mixture containing 40 mM Tris-HCl (pH 8.0), 5 mM MgCl2, 4 mM 2-mercaptoethanol, 10 μM rolipram (a type IV phosphodiesterase selective inhibitor), 1 μM cAMP, 10 nM ^3 H-cAMP (in the case of type V phosphodiesterase, 1 μM cAMP and 10 nM ^3 H-cAMP are replaced by 1 μM cGMP and 100 nM ^3 H-cGMP) and each of the isozyme stock solutions. After completion of the reaction, the reaction mixture was boiled at 90° C. for 1 minute, ice-cooled, mixed with 1 unit of 5'-nucleotidase and then subjected to 10 minutes of reaction at 30° C., and the reaction was stopped by adding 1 ml of methanol. […]
For the compound `CCn1c(=O)cc(C2CCCCC2)c2cccnc21` [Example 46, 4-cyclohexyl-1-ethyl-1,8-naphthyridin-2(1H)-one 0.45 hydrochloride 0.25 hydrate], the IC50 is 87 µM. This lies in the double-digit micromolar range.
`CCn1c(=O)cc(-c2ccccc2)c2c(C)cc(C)nc21` [Example 38, 1-Ethyl-5,7-dimethyl-4-phenyl-1,8-naphthyridin-2(1H)-one] showed an IC50 of 19.6 µM.
Consider `CCc1cc(C)c2c(-c3ccccc3)cc(=O)n(CC)c2n1` [Example 40, 1,7-Diethyl-5-methyl-4-phenyl-1,8-naphthyridin-2(1H)-one], for which the IC50 was 14.5 µM.
For `CCc1cc(C)c2c(-c3cccc(Cl)c3)cc(=O)n(C3CC3)c2n1` [Example 35, 4-(3-Chlorophenyl)-1-cyclopropyl-7-ethyl-5-methyl-1,8-naphthyridin-2(1H)-on], it took 41.6 µM to reach half-maximal inhibition (IC50). This IC50 lies about 2.9-fold higher than the previous one.
The compound `CCn1c(=O)cc(-c2cccc(Br)c2)c2c(C)cc(C)nc21` [Example 30, 4-(3-Bromophenyl)-1-ethyl-5,7-dimethyl-1,8-naphthyridin-2(1H)-one] showed a half-maximal inhibitory concentration (IC50) of 8.66 µM.
To `CCn1c(=O)cc(-c2cccc(Cl)c2)c2cccnc21` [Example 15, 4-(3-Chlorophenyl)-1-ethyl-1,8-naphthyridin-2(1H)-one] belongs 41.2 µM; to `CCc1cc(C)c2c(-c3cccc(Cl)c3)cc(=O)n(C)c2n1` [Example 27, 4-(3-Chlorophenyl)-7-ethyl-1,5-dimethyl-1,8-naphthyridin-2(1H)-one], 27.9 µM.
`Cc1cc(C)c2c(-c3cccc(Cl)c3)cc(=O)n(C)c2n1` [Example 24, 4-(3-chlorophenyl)-1,5,7-trimethyl-1,8-naphthyridin-2(1H)-one] registered a 50% inhibitory concentration (IC50) of 9.7 µM.
Then `CCCn1c(=O)cc(-c2cccc(Br)c2)c2c(C)cc(CC)nc21` [Example 33, 4-(3-Bromophenyl)-7-ethyl-5-methyl-1-propyl-1,8-naphthyridin-2(1H)-one], with 8.39 µM; and `CCc1cc(C)c2c(-c3cccc(Br)c3)cc(=O)n(CC)c2n1` [Example 31, 4-(3-bromophenyl)-1,7-diethyl-5-methyl-1,8-naphthyridin-2(1H)-one], with greater than 30 µM; and `CCc1cc(C)c2c(-c3ccccc3)cc(=O)n(C)c2n1` [Example 26, 7-Ethyl-1,5-dimethyl-4-phenyl-1,8-naphthyridin-2(1H)-one], with 27.3 µM.
`CCc1cc(C)c2c(-c3cccc(Cl)c3)cc(=S)n(C)c2n1` [Example 43, 4-(3-chlorophenyl)-7-ethyl-1,5-dimethyl-1,8-naphthyridine-2(1H)-thione] registered a 50% inhibitory concentration (IC50) of 4.79 µM.
To `CCn1c(=O)cc(-c2cccc(Cl)c2)c2c(C)cc(C)nc21` [Example 29, 4-(3-Chlorophenyl)-1-ethyl-5,7-dimethyl-1,8-naphthyridin-2(1H)-one] belongs 24.6 µM; to `CCc1cc(C)c2c(C3CCCCC3)cc(=O)n(CC)c2n1` [Example 49, 4-cyclohexyl-1,7-diethyl-5-methyl-1,8-naphthyridin-2(1H)-one], 3.87 µM.
